From patent US20080090278A1, “METHOD FOR ENHANCING STABILITY OF A COMPOSITION COMPRISING SOLUBLE GLUCOSE DEHYDROGENASE (GDH)” (TOYO BOSEKI KABUSHIKI KAISHA, priority 2006, published 2008) come the findings set out here.

The test system of data set [1] is recombinant FAD-GDH (rAO-FAD-GDH) derived from Aspergillus oryzae. The data set can be described thus: Thermal stabilization effect of stabilizing agents on rAO-FAD-GDH in solution (Examples 3-6). It counts as physicochemical. The note with it: for thermal stabilization effect on FAD-GDH (in words): 50° C. for 15 minutes, Example 3. Here is the method: Enhancement of the thermal stability referred to herein means increasing of a residual ratio (%) of the GDH enzyme kept after giving the treatment with heat at a certain temperature for a certain time period to the composition comprising the GDH enzyme. In the present invention, the activity in the sample stored at 4° C. which is nearly completely kept is made 100%, this is compared with the activity in the GDH solution after giving the treatment with heat at a certain-temperature for a certain time period, and the residual ratio of the enzyme is calculated.
In the method for measuring the activity described in the method for measuring the GDH enzyme activity described later, an activity value (a) of GDH in the solution stored at 4° C. and an activity value (b) of GDH after giving the treatment with heat at a certain temperature for a certain time period were measured, a relative value[(b)/(a)×100] when the activity value (a) was made 100 was calculated. This relative value was made the residual ratio (%). Comparing the presence with the absence of the added compound, when the residual ratio was increased by the addition of the compound, it was determined that the thermal stability was enhanced.
In the present invention, the activity of FAD-dependent GDH is measured as follows.
The reaction-reagent is made by mixing 15.6 mL of the PIPES buffer, 0.2 mL of the DCPIP solution and 4 mL of the D-glucose solution.
(§1) The reaction reagent (3 mL) is preliminarily heated at 37° C. for 5 minutes. The GDH solution (0.1 mL) is added and gently mixed, subsequently the change of absorbance at 600 nm is recorded for 5 minutes using the spectrophotometer controlled to 37° C. using water as the control, and the change of absorbance per one minute (ΔODTEST) is calculated from the linear portion of the record. The solvent in which GDH will be dissolved in place of the blinded GDH solution is added to the reagent mixture, and the change of absorbance (ΔODBLANK) per one minute is measured. The GDH activity is calculated from these values according to the following formula. One unit (U) in the GDH activity is defined as the amount of the enzyme which reduces […] DCPIP for one minute in the presence of 200 mM D-glucose. Activity (U/mL)=[−(ΔODTEST−ΔODBLANK)×3.0×dilution scale]/(16.3×0.1×1.0) In the above formula, 3.0 represents a liquid amount (mL) of the reaction reagent+the enzyme solution, 16.3 represents a millimolar molecular absorbance coefficient (cm^2/μmol) in the condition for measuring this enzyme, 0.1 represents the liquid amount of the enzyme solution (mL) and 1.0 represents a light path length (cm) of the cell.
The study was performed in accordance with the method for measuring the FAD-GDH activity in Test Example 1 described above.
First, 50 mL of an enzyme solution obtained by dissolving the recombinant FAD-GDH (rAO-FAD-GDH)-derived from Aspergillus oryzae obtained in Example 1 at about 2 U/mL in an enzyme dilution solution (50 mM potassium phosphate buffer, pH 5.5, 0.1% Triton X-100) was prepared. Two tubes in which each stabilizing agent described in Table 1 had been added at each final concentration to 0.9 mL of this enzyme solution to make the total volume 1.0 mL were prepared.
In two tubes, one tube was stored at […] and another tube was treated at 50° C. for 15 minutes. Then, the FAD-GDH activity in each tube was measured. The enzyme activity in the tube stored at 4° C. was made 100, and comparing with it, the activity value after being treated at 50° C. for 15 minutes was calculated as the residual activity ratio (%).
The method was in accordance with Example 3 described above.
The methods were in accordance with Example 3 above.

For data set [2], the system named is recombinant FAD-GDH (rAT-FAD-GDH) derived from Aspergillus terreus. Briefly: Thermal stabilization effect of stabilizing agents on rAT-FAD-GDH in solution (Example 9). In kind it is physicochemical. Conditions: for Residual activity ratio (%) / GLD activity value (U/ml) 50° C., 15 min: Table 10, buffer 50 mM K-PB, stabilizer at each final concentration described in Table 1; for Residual activity ratio (%): 50° C., 15 min versus 4° C.; for thermal stabilization effect on FAD-GDH (in words): rAT-FAD-GDH, 50° C. for 15 minutes, Example 9. The method, then: as §1, with “D-glucose.” for “D-glucose. Activity (U/mL)=[−(ΔODTEST−ΔODBLANK)×3.0×dilution scale]/(16.3×0.1×1.0) In the above formula, 3.0 represents a liquid amount (mL) of the reaction reagent+the enzyme solution, 16.3 represents a millimolar molecular absorbance coefficient (cm^2/μmol) in the condition for measuring this enzyme, 0.1 represents the liquid amount of the enzyme solution (mL) and 1.0 represents a light path length (cm) of the cell.”
Two tubes in which each stabilizing agent described in Table 1 had been added at each final concentration to 0.9 mL of this enzyme solution to make the total volume 1.0 mL were prepared.
In two tubes, one tube was stored at 4° C. and another tube was treated at 50° C. for 15 minutes. Then, the FAD-GDH activity in each tube was measured. The enzyme activity in the tube stored at 4° C. was made 100, and comparing with it, the activity value after being treated at 50° C. for 15 minutes was calculated as the residual activity ratio (%).

Where [3] appears, read: stabilizer final concentration 1%, rAO-FAD-GDH about 2 U/mL, 50 mM potassium phosphate buffer pH 5.5, 0.1% Triton X-100, 4° C. sample = 100.
[4] abbreviates: stabilizer final concentration 0.25%, rAO-FAD-GDH, pH 5.5.
Where [5] appears, read: stabilizer final concentration 0.10%, rAO-FAD-GDH, pH 5.5.

Take `O=CC[C@@H](O)[C@H](O)[C@H](O)CO` [2-deoxy-D-glucose]: in data set [1] (rAO-FAD-GDH), the “thermal stabilization effect on FAD-GDH (in words)” value (from here on “thermal stabilization effect”) is “high effect”. Also, the “Residual activity ratio (%) after treatment at 50° C., 15 min” value (“Residual activity ratio (%) … 15 min” for short) in data set [1] (setting [3]) amounted to 69.6%. For the same compound, in data set [2], the “Residual activity ratio (%)” value is 36.9%; the “GLD activity value (U/ml) 50° C., 15 min” value was found to be 1.032 U/ml; the “thermal stabilization effect” value is “high effect”.

With `OC[C@@H](O)[C@H]1OC[C@H](O)[C@H]1O` [1,4-sorbitane], the “thermal stabilization effect” value in data set [1] (rAO-FAD-GDH) is “high effect”. Moreover, in data set [1] (setting [3]), the “Residual activity ratio (%) … 15 min” value is reported as 26.7%. Besides, in data set [2], the “Residual activity ratio (%)” value is on record as 2.5%; the “GLD activity value (U/ml) 50° C., 15 min” value amounted to 0.072 U/ml; the “thermal stabilization effect” value is “high effect”.

With `NCCS(=O)(=O)O` [Taurine], the “thermal stabilization effect” value in data set [1] (rAO-FAD-GDH) was “high effect”. Besides, the “Residual activity ratio (%) … 15 min” value in data set [1] (setting [3]) was found to be 23.8%. In addition, in data set [2], the “Residual activity ratio (%)” value stood at 3.2%; the “GLD activity value (U/ml) 50° C., 15 min” value came to 0.081 U/ml; the “thermal stabilization effect” value is recorded as “high effect”.

Consider `O=C[C@H](O)[C@@H](O)[C@H](O)CO` [D-(+)-xylose], for which the “thermal stabilization effect” value in data set [1] (rAO-FAD-GDH) was “high effect”. Further, the “Residual activity ratio (%) … 15 min” value in data set [1] (setting [3]) is 68.5%. Besides, in data set [2], the “Residual activity ratio (%)” value was 18.5%; the “GLD activity value (U/ml) 50° C., 15 min” value is on record as 0.516 U/ml; the “thermal stabilization effect” value is recorded as “high effect”.

Take `Cl.NCCCC[C@H](N)C(=O)O` [L-lysine hydrochloride]: the “thermal stabilization effect” value in data set [1] (rAO-FAD-GDH) is given as “high effect”. Besides, in data set [1] (setting [3]), the “Residual activity ratio (%) … 15 min” value worked out at 23.4%. For the same compound, in data set [2], the “Residual activity ratio (%)” value was determined as 3.5%; the “GLD activity value (U/ml) 50° C., 15 min” value worked out at 0.093 U/ml; the “thermal stabilization effect” value was “high effect”.

Regarding `O=C[C@H](O)[C@@H](O)[C@@H](O)[C@H](O)CO` [Galactose], the “thermal stabilization effect” value in data set [1] (rAO-FAD-GDH) is recorded as “high effect”. For the same compound, the “Residual activity ratio (%) … 15 min” value in data set [1] (setting [3]) was found to be 60.6%. In addition, in data set [2], the “Residual activity ratio (%)” value stood at 17.2%; the “GLD activity value (U/ml) 50° C., 15 min” value came to 0.495 U/ml; the “thermal stabilization effect” value is reported as “high effect”.

`N[C@@H](Cc1ccccc1)C(=O)O` [phenylalanine]: the “thermal stabilization effect” value in data set [1] (rAO-FAD-GDH) and in data set [2] was “high effect” in each case.

Regarding `NC(=O)C[C@H](N)C(=O)O` [L-asparagine], the “Residual activity ratio (%) … 15 min” value in data set [1] (stabilizer final concentration 0.20%, rAO-FAD-GDH, pH 5.5) came to 22.8%. Besides, in data set [2], the “Residual activity ratio (%)” value was 1.6% and the “GLD activity value (U/ml) 50° C., 15 min” value came out at 0.044 U/ml.

Take `N.N.O=S(=O)(O)O` [Ammonium sulfate]: the “thermal stabilization effect” value in data set [1] (rAO-FAD-GDH) and in data set [2] was “high effect” each time.

As to `CC[C@H](C)[C@H](N)C(=O)O` (racemic) [DL-isoleucine], the “Residual activity ratio (%) … 15 min” value in data set [1] (setting [4]) is 23.4%. For the same compound, in data set [2], the “Residual activity ratio (%)” value turned out to be 1.7% and the “GLD activity value (U/ml) 50° C., 15 min” value turned out to be 0.047 U/ml.

For the compound `N[C@@H](Cc1c[nH]c2ccccc12)C(=O)O` [L-triptophan], the “Residual activity ratio (%) … 15 min” value in data set [1] (setting [5]) came to 24.3%. Besides, in data set [2], the “Residual activity ratio (%)” value was determined as 1.3% and the “GLD activity value (U/ml) 50° C., 15 min” value was 0.034 U/ml.

As to `CC(C)C[C@H](N)C(=O)O` [L-leucine], in data set [1] (setting [5]), the “Residual activity ratio (%) … 15 min” value came out at 22.2%. In data set [2], the “Residual activity ratio (%)” value amounted to 1.4% and the “GLD activity value (U/ml) 50° C., 15 min” value was 0.038 U/ml.

Consider `OC[C@H]1O[C@@](CO)(O[C@H]2O[C@H](CO)[C@@H](O)[C@H](O)[C@H]2O)[C@@H](O[C@H]2O[C@H](CO)[C@@H](O)[C@H](O)[C@H]2O)[C@@H]1O` [D-(+)-melezitose], for which, in data set [1] (rAO-FAD-GDH), the “thermal stabilization effect” value was “high effect”. The “Residual activity ratio (%) … 15 min” value in data set [1] (setting [3]) turned out to be 44.7%. In data set [2], the “Residual activity ratio (%)” value worked out at 6.9%; the “GLD activity value (U/ml) 50° C., 15 min” value came to 0.193 U/ml; the “thermal stabilization effect” value is given as “high effect”.

Inulin: the “Residual activity ratio (%) … 15 min” value in data set [1] (setting [3]) amounted to 24.7%. Also, in data set [2], the “Residual activity ratio (%)” value was found to be 1.8% and the “GLD activity value (U/ml) 50° C., 15 min” value was found to be 0.053 U/ml.

For `CC(C)[C@H](N)C(=O)O` [L-valine], in data set [1] (stabilizer final concentration 0.50%, rAO-FAD-GDH, pH 5.5), the “Residual activity ratio (%) … 15 min” value turned out to be 25.5%. In addition, in data set [2], the “Residual activity ratio (%)” value was determined as 1.6% and the “GLD activity value (U/ml) 50° C., 15 min” value came to 0.043 U/ml.

As to `NC(=O)CC[C@H](N)C(=O)O` [L-glutamine], in data set [1] (setting [4]), the “Residual activity ratio (%) … 15 min” value is on record as 22.6%. In data set [2], the “Residual activity ratio (%)” value came to 1.7% and the “GLD activity value (U/ml) 50° C., 15 min” value is recorded as 0.046 U/ml.

As to `O=S(=O)([O-])[O-].[Na+].[Na+]` [Sodium sulfate], the “thermal stabilization effect” value in data set [1] (rAO-FAD-GDH) and in data set [2] was “high effect” in each case.

For `O=C([O-])[C@H](O)[C@@H](O)[C@H](O)[C@H](O)CO.[Na+]` [sodium gluconate], the “thermal stabilization effect” value in data set [1] (rAO-FAD-GDH) was “high effect”. For the same compound, in data set [1] (setting [3]), the “Residual activity ratio (%) … 15 min” value is recorded as 33.5%. For the same compound, in data set [2], the “Residual activity ratio (%)” value is 3.9%; the “GLD activity value (U/ml) 50° C., 15 min” value turned out to be 0.111 U/ml; the “thermal stabilization effect” value was “high effect”.

For `N[C@@H](CC(=O)[O-])C(=O)[O-].[Na+].[Na+]` [Sodium L-aspartate], the “thermal stabilization effect” value in data set [1] (rAO-FAD-GDH) is listed as “high effect”. Moreover, in data set [1] (setting [3]), the “Residual activity ratio (%) … 15 min” value was 23.0%. Moreover, in data set [2], the “Residual activity ratio (%)” value was found to be 3.7%; the “GLD activity value (U/ml) 50° C., 15 min” value is 0.102 U/ml; the “thermal stabilization effect” value is recorded as “high effect”.

Turning to `O=C(O)CC(=O)O` [Malonic acid], the “thermal stabilization effect” value in data set [1] (rAO-FAD-GDH) and in data set [2] was “high effect” each time.

Regarding `O=C(O)CCC(=O)O` [Succinic acid], the “thermal stabilization effect” value in data set [1] (rAO-FAD-GDH) and in data set [2] was “high effect” in each case.

Regarding `O=C(O)[C@H]1CCCN1` [D-proline], the “Residual activity ratio (%) … 15 min” value in data set [1] (setting [3]) is on record as 24.8%. In addition, in data set [2], the “Residual activity ratio (%)” value came out at 2.8% and the “GLD activity value (U/ml) 50° C., 15 min” value is reported as 0.079 U/ml.
